Source: patent US8372838B2, “Compounds as bradykinin B1 antagonists” (Boehringer Ingelheim International GmbH, priority 2010, dated 2013)

Legend:
human hepatocytes = experiment: metabolic clearance in human hepatocytes; format: in vitro ADME; conditions: cryopreserved primary human hepatocytes, 5% human serum, 1 μM test compound, 6 h; well-stirred model, percentage of human hepatic blood flow
From the text: The metabolic stability can be measured by determining the decomposition in human hepatocytes and using the rate of decomposition to calculate the clearance, which in turn is expressed as a percentage of the human hepatic blood flow (% Qh). […] Thus, in the interests of achieving a long duration of activity it is highly advantageous if the active substance has a high metabolic stability (low clearance).
Description of Method for Determining Metabolic Clearance in Human Hepatocytes
The metabolic breakdown of the test substance is determined in a hepatocyte suspension. Cryopreserved primary human hepatocytes are incubated in a suitable incubation medium (e.g. Dulbecco's modified eagle medium, DMEM) which contains 5% human serum. After 30 minutes' pre-incubation in the incubator (37° C., 10% carbon dioxide) 5 μL of the test compound (80 μM, prepared from a 2 mM stock solution in dimethylsulphoxide and diluted 1:25 with incubation medium) are added to 395 μL of hepatocyte suspension (cell density in the range from 0.25-1 million cells/mL, typically 1 million cells/mL; final concentration of the test compound 1 μM). The cells are incubated for 6 hours in an incubator with an orbital agitator. At times 0, 0.5, 1, 2, 4 and 6 h, 25 μL of the medium are removed in each case. The medium removed is mixed with an excess of acetonitrile and centrifuged for 5 minutes. The supernatant is removed, evaporated to dryness under nitrogen and taken up in a mixture of 25% methanol and 0.1% formic acid. The reduction in the concentration of the test substance in the incubation medium is determined by coupling liquid chromatography with electrospray mass spectrometry. The linear phase of the decrease in the concentration of the test substance in the medium is used for the calculation. The intrinsic clearance is calculated as follows: CL_INTRINSIC=dose/AUC=(C0/CD)/(AUD+clast/k)×1000/60. C0: initial concentration in the incubation [μM], CD: cell density of the vital cells [10e6cells/mL], AUD: area under the curve [μM×h], clast: concentration of the last data point [μM], k: increase in the regression lines for the reduction in the test substance [h−1]. The intrinsic in vitro clearance calculated is now converted into the intrinsic in vivo clearance: CL_INTRINSIC_INVIVO [ml/min/kg]=(CL_INTRINSIC [μL/min/10e6cells]×hepatocellularity [10e6 cells/g liver]×liver factor [g/kg body weight])/1000 and the estimated human clearance is calculated using the well-stirred model: CL [ml/min/kg]=CL_INTRINSIC_INVIVO [ml/min/kg]×hepatic blood flow [ml/min/kg]/(CL_INTRINSIC_INVIVO [ml/min/kg]+hepatic blood flow [ml/min/kg]). […]

cynomolgus BK1-receptor = biological target: T1, cynomolgus BK1-receptor (Macaca fascicularis, UniProt Q3BCU0); experiment: cynoBK1-receptor binding assay
T1 construct: expressed in transfected cells; host or cells: CHO cells
T1 sequence (Q3BCU0 1-352): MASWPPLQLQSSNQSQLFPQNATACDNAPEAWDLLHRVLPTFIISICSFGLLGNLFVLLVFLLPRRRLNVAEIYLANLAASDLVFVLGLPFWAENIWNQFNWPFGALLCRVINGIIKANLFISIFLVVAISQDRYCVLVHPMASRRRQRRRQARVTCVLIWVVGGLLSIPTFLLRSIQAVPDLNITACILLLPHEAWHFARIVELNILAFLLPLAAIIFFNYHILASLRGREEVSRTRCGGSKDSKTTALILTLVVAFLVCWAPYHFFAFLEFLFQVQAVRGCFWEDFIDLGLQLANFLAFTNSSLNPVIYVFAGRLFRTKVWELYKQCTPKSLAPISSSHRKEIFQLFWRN
Description: Description of the Method of Binding the CynoBK1-Receptor
CHO cells that express the cynomolgus BK1-receptor are cultivated in “HAM'S F-12 Medium”. The medium is removed from confluent cultures, the cells are washed with PBS buffer, scraped off or detached using Versene and isolated by centrifuging. Then the cells are homogenised in suspension, the homogenate is centrifuged and resuspended. After the protein content has been determined 200 μl of the homogenate (50 to 250 μg protein/assay) are incubated for 60-180 minutes at ambient temperature with 0.5 to 5.0 nM kallidine (DesArg10,Leu9), [3,4-Prolyl-3,43H(N)] and increasing concentrations of the test substance in a total volume of 250 μl. The incubation is stopped by rapid filtration through GF/B glass fibre filters that have been pre-treated with polyethyleneimine (0.3%). The radioactivity bound to the protein is measured with a TopCount NXT. The radioactivity bound in the presence of 1.0 μM kallidine (DesArg10) is defined as non-specific binding. The concentration binding curve may be analysed using computer-aided non-linear curve fitting to determine the corresponding Ki value for the test substance.
Test results of the cynoBK1-receptor binding assay: […]

[1] = CHO cell homogenate expressing cynomolgus BK1-receptor, radioligand kallidine (DesArg10,Leu9), [3,4-Prolyl-3,43H(N)]
[2] = cynoBK1-receptor binding, repeated beside clearance in the metabolic stability table

| SMILES | Clearance (human hepatocytes) [% Qh] | Ki (cynomolgus BK1-receptor; [1]) [nM] | Ki (cynomolgus BK1-receptor; [2]) [nM] |
| --- | --- | --- | --- |
| O=C(NC1(C(=O)NCc2ccc(Nc3ccc(F)cc3C(F)(F)F)cn2)CC1)c1cn[nH]c(=O)c1 [Example 1, 6-oxo-5,6-dihydro-pyridazine-4-carboxylic acid-(1-{[5-(4-fluoro-2-trifluoromethyl-phenylamino)-pyridin-2-ylmethyl]-carbamoyl}-cyclopropyl)-amide] | 1 | 3.5 | 3.5 |
| O=C(NC1(C(=O)NCc2ccc(Nc3ccc(Cl)cc3C(F)(F)F)cn2)CC1)c1cn[nH]c(=O)c1 [Example 2, 6-oxo-1,6-dihydro-pyridazine-4-carboxylic acid-(1-{[5-(4-chloro-2-trifluoromethyl-phenylamino)-pyridin-2-ylmethyl]-carbamoyl}-cyclopropyl)-amide] | – | 5.1 | – |
| O=C(N[C@@]1(C(=O)NCc2ccc(Nc3ccc(F)cc3C(F)(F)F)cc2)CCOC1)c1cn[nH]c(=O)c1 [Example 3, (S)-6-oxo-1,6-dihydro-pyridazine-4-carboxylic acid-{3-[4-(4-fluoro-2-trifluoromethyl-phenylamino)-benzylcarbamoyl]-tetrahydrofuran-3-yl}-amide] | 7 | 12 | 12 |
| O=C(N[C@@]1(C(=O)NCc2ccc(Nc3ccc(Cl)cc3C(F)(F)F)cc2)CCOC1)c1cn[nH]c(=O)c1 [Example 4, (S)-6-oxo-1,6-dihydro-pyridazine-4-carboxylic acid-{3-[4-(4-chloro-2-trifluoromethyl-phenylamino)-benzylcarbamoyl]-tetrahydrofuran-3-yl}-amide] | – | 27 | – |
| O=C(N[C@@]1(C(=O)NCc2ccc(Nc3ccccc3C(F)(F)F)cc2)CCOC1)c1cn[nH]c(=O)c1 [Example 5, (S)-6-oxo-1,6-dihydro-pyridazine-4-carboxylic acid-{3-[4-(2-trifluoromethyl-phenylamino)-benzylcarbamoyl]-tetrahydrofuran-3-yl}-amide] | 22 | 11 | 11 |
| O=C(N[C@@]1(C(=O)NCc2ccc(Nc3ccc(F)cc3C(F)(F)F)cc2F)CCOC1)c1cn[nH]c(=O)c1 [Example 6, (S)-6-oxo-1,6-dihydro-pyridazine-4-carboxylic acid-{3-[2-fluoro-4-(4-fluoro-2-trifluoromethyl-phenylamino)-benzylcarbamoyl]-tetrahydrofuran-3-yl}-amide] | 6 | 3.2 | – |
| O=C(N[C@@]1(C(=O)NCc2ccc(Nc3ccc(Cl)cc3C(F)(F)F)cc2F)CCOC1)c1cn[nH]c(=O)c1 [Example 7, (S)-6-oxo-1,6-dihydro-pyridazine-4-carboxylic acid-{3-[4-(4-chloro-2-trifluoromethyl-phenylamino)-2-fluoro-benzylcarbamoyl]-tetrahydrofuran-3-yl}-amide] | – | 30 | – |
| O=C(N[C@@]1(C(=O)NCc2ccc(Nc3ccc(Br)cc3C(F)(F)F)cc2)CCOC1)c1cn[nH]c(=O)c1 [Example 8, (S)-6-oxo-1,6-dihydro-pyridazine-4-carboxylic acid-{3-[4-(4-bromo-2-trifluoromethyl-phenylamino)-benzylcarbamoyl]-tetrahydrofuran-3-yl}-amide] | – | 37 | – |
| O=C(N[C@@]1(C(=O)NCc2ccc(Nc3ccccc3C(F)(F)F)cc2F)CCOC1)c1cn[nH]c(=O)c1 [Example 9, (S)-6-oxo-1,6-dihydro-pyridazine-4-carboxylic acid {3-[2-fluoro-4-(2-trifluoromethyl-phenylamino)-benzylcarbamoyl]-tetrahydro-furan-3-yl}-amide] | – | 6.6 | – |
